# Several values for one entry are separate records, joined by “and”; a condition that tells them apart may be missing. Equal entries are not always repeated. Where two headings read alike, the source gives them in different places.
# Tests used:
# [1] = system: p-ERK (MAPK 42/44) in KM-12 cells; assay: Western blot of phosphorylated MAPK 42/44 (ERK) in KM-12 cells; type: cell-based
# Method: (§1) 20 μg NTRK1 fusion confirmation
# (§2) T20 (ThermoScientific, Rockford, IL) for 30 minutes. MiniPrep cat# R2051 following manufacturer ’s protocol. […]
# (§3) (1:2000) (Sigma-Aldrich), HRP-conjugated mouse or primers. The primer sequences are TPM3_Ex3B_F5:
# (§4) Chalfont, UK). All western blots were developed using Ex12_R5: […]. PCR was […]
# [2] = system: MKNK1/2 (p-eIF4E S209) in KM-12 cells; assay: Western blot of p-eIF4E S209 in KM-12 cells; type: cell-based
# Method: as §1, §2, §3, §4
# KM-12 cells [3] = assay: KM-12 anchorage dependent cell proliferation (CellTiter-Glo); type: cell-based; conditions: Homo sapiens, KM12, 72 h, read-out: IC50 KM-12 cell proliferation (anchorage dependent)
# KM-12 cells [4] = assay: KM-12 anchorage independent growth in alginate; type: cell-based; conditions: Homo sapiens, KM12, 72 h, read-out: IC50 KM-12 anchorage independent growth
# [5] = system: KM-12 xenograft tumors (TPM3-NTRK1); assay: KM-12 xenograft tumor model; type: in vivo, athymic nude mice
# [6] = molecular target: T1, wild-type TPM3-NTRK1 in NIH-3T3 cells (Homo sapiens, UniProt P04629+P06753); assay: Immunoblot of p-NTRK1 in NIH-3T3 cells, wild-type TPM3-NTRK1; type: cell-based; conditions: 0.2 μM and 0.5 μM, 4 hours
# T1 construct: expressed in transfected cells
# [7] = molecular target: T2, mutant G595R TPM3-NTRK1 in NIH-3T3 cells (Homo sapiens, UniProt P04629+P06753, G595R); assay: Immunoblot of p-NTRK1 in NIH-3T3 cells, G595R TPM3-NTRK1; type: cell-based; conditions: 0.2 μM and 0.5 μM, 4 hours
# T2 construct: expressed in transfected cells
# [8] = system: p-eIF4E in NIH-3T3 cells expressing TPM3-NTRK1; assay: Immunoblot of p-eIF4E in NIH-3T3 TPM3-NTRK1 cells; type: cell-based
# Method: 350 μg/ml hygromycin selection for 14 days. Each stable CO). Percent Ki67+ area was calculated as the percentage
# wild-type or mutated NTRK1. Control vector containing positive. […]
# as §1
# T20 (ThermoScientific, Rockford, IL) for 30 minutes. MiniPrep cat# R2051 following manufacturer ’s protocol.
# A forward primer upstream of the
# as §3, §4
# MO-91 xenograft tumors = system: MO-91 xenograft tumors; parameters: method as in PMID 23811600; conditions: 50 mg/kg once daily; cited from earlier work
# MO-91 cells (ETV6-NTRK3) = conditions: read-out: IC50 proliferation of MO-91 cells; in vitro; cited from earlier work
# [9] = system: EL1989 PDX tumors (TPM3-NTRK1); assay: Colorectal carcinoma PDX model EL1989; conditions: mouse, in vivo
# T1 sequence (P06753+P04629 fused): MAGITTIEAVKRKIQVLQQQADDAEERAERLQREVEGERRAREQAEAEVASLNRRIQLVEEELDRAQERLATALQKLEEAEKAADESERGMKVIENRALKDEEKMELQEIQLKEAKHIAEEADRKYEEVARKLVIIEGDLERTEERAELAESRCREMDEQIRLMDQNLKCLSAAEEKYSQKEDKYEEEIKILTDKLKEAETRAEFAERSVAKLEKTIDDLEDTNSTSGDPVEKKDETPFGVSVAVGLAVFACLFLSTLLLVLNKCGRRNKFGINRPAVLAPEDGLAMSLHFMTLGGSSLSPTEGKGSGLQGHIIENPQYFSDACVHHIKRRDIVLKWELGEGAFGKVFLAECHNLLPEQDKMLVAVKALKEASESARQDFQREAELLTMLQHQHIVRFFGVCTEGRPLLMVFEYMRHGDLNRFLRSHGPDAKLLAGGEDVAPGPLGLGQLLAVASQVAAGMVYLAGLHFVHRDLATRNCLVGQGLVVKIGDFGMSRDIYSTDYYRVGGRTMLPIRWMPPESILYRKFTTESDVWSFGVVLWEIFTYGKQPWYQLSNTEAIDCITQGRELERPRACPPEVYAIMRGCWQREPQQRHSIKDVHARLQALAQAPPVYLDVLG
# T2 sequence (P04629 510-796 G595R limits assumed, one chain of several): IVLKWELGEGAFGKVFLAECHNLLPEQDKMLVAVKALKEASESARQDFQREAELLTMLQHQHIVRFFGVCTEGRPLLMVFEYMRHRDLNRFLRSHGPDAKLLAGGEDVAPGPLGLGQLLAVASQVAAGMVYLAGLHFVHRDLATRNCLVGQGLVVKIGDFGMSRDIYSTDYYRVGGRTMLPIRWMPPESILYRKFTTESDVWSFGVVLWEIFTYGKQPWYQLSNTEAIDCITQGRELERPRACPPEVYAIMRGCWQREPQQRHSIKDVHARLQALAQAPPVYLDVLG
Structure (SMILES),p-ERK inhibition (in words) [1],"p-eIF4E reduction (MKNK1/2 inhibition, in words) [2]",IC50 (KM-12 cells [3]),IC50 (KM-12 cells [4]),"Animal weights, KM-12 xenograft study ([5]; merestinib 24 mg/kg once daily, crizotinib 25 mg/kg twice daily, measured twice weekly, relative to vehicle)","T/C, KM-12 xenograft ([5]; mouse, in vivo)","p-NTRK1 (Y490) signaling, wild-type TPM3-NTRK1, in words [6]","p-NTRK1, mutant G595R TPM3-NTRK1, in words [7]","p-eIF4E reduction, in words [8]",Effect on MO-91 xenograft tumors (MO-91 xenograft tumors),IC50 (MO-91 cells (ETV6-NTRK3)),"% Necrosis/Mucin, individual animal [9]","% Necrosis/Mucin, mean per group [9]","T/C, EL1989 PDX [9]","Concentration giving total inhibition of phosphorylation of MAPK 42/44 (ERK) ([1]; KM-12 cells, 2 hours, 3.9-1000 nM, western blot)","p-eIF4E reduction (MKNK1/2 inhibition, in words) ([2]; KM-12 cells, 2 hours, western blot, b12: 100, 500, 1000 nM)"
"C[C@@H](Oc1cc(-c2cnn(C3CCNCC3)c2)cnc1N)c1c(Cl)ccc(F)c1Cl [Crizotinib, reference compound]",dose dependent inhibition,small reduction of p-eIF4E,92 nM,276 nM,no significant weight alteration,39.5%,reduced,little effect,did not show reduction in p-eIF4E,induced tumor regression,10 nM,80% (2×) and 20% and 95% and 30% and 10%,50%,13.5%,–,–
"O=C(Nc1cnn2ccc(N3CCC[C@@H]3c3cc(F)ccc3F)nc12)N1CC[C@H](O)C1 [Larotrectinib, reference compound]",–,–,–,–,–,–,reduced,partial p-NTRK1 inhibition,–,–,–,–,–,–,15.6 nM,small reduction of p-eIF4E
"CN1CCN(c2ccc(C(=O)Nc3n[nH]c4ccc(Cc5cc(F)cc(F)c5)cc34)c(NC3CCOCC3)c2)CC1 [Entrectinib, reference compound]",–,small reduction of p-eIF4E,–,–,–,–,–,–,–,–,–,–,–,–,–,–

# — PMC5862616 (Oncotarget, 2018)
